GI50 and TGI data for twelve compounds are collected here from PubChem BioAssay (NCI).

Molecules are shown by their SMILES. “And” between values parts separate entries of the source, which are not always exact repeats. Equal values may be shown once.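 Values below derive from 48-hour exposures of cells grown in 96-well plates, with endpoints linearly interpolated between the two concentrations bracketing the appropriate inhibition level. Here, GI50 denotes the concentration required for 50% inhibition of growth. The concentration for full growth arrest is given as TGI.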

Test systems include OVCAR-8 ovarian; SF-539 CNS; CCRF-CEM leukemia; SN12C renal; MDA-MB-231 breast; UACC-62 melanoma; NCI-H23 lung; NCI-H226 lung; SW-620 colon; IGROV1 ovarian.
Experiment in all cases: NCI anticancer screen, dose series, 48 h

`CN(C)CCNc1nc2ccccc2c2c(=O)c3ccccc3sc12`: the GI50 in the assay on OVCAR-8 ovarian is 2.36 µM; with SF-539 CNS, 1.78 µM; with CCRF-CEM leukemia, 1.92 µM; in the assay on SN12C renal it was 2.13 µM; with MDA-MB-231 breast, 1.34 µM; in the assay on UACC-62 melanoma it was 1.73 µM. Besides, the GI50 in the assay on NCI-H23 lung is 1.68 µM; in the assay on NCI-H226 lung, 1.77 µM; with SW-620 colon it was 1.39 µM; in the assay on IGROV1 ovarian, 1.81 µM. The TGI came to 6.92 µM in the assay with OVCAR-8 ovarian; 3.58 µM with SF-539 CNS; 4.31 µM with CCRF-CEM leukemia; 8.85 µM in the assay on SN12C renal; 3.64 µM in the assay with MDA-MB-231 breast; 3.68 µM in the assay with UACC-62 melanoma. For the same compound, the TGI came out at 4.86 µM in the assay on NCI-H23 lung, 5.82 µM in the assay on NCI-H226 lung, 3.12 µM in the assay with SW-620 colon and 4.53 µM in the assay on IGROV1 ovarian.

`O=C(Nc1cccc(C(F)(F)F)c1)c1cc(Br)cc(Br)c1O`: the TGI in the assay on OVCAR-8 ovarian is over 10 µM; in the assay on SF-539 CNS, 9.15 µM; in the assay on CCRF-CEM leukemia it was over 10 µM; in the assay on SN12C renal, over 10 µM; with MDA-MB-231 breast, over 10 µM; in the assay on UACC-62 melanoma, over 10 µM. Further, the TGI with NCI-H23 lung is 5.27 µM; with NCI-H226 lung, 9.42 µM; with SW-620 colon, over 10 µM; in the assay on IGROV1 ovarian, over 10 µM.

Take `Cc1cc(S(=O)(=O)Nc2nc3cc(Cl)ccc3o2)c(SCc2ccccc2)cc1Cl`: the GI50 in the assay on OVCAR-8 ovarian is 4.18 µM; with SF-539 CNS, 17.8 µM; in the assay with CCRF-CEM leukemia, 3.53 µM; in the assay on SN12C renal, 22 µM; in the assay on MDA-MB-231 breast, 24.2 µM; with UACC-62 melanoma it was 19.2 µM. In addition, the GI50 with NCI-H23 lung was 26.5 µM; in the assay on NCI-H226 lung, 38.5 µM; in the assay with SW-620 colon, 19.2 µM; in the assay with IGROV1 ovarian it was 19.8 µM. Also, the TGI with OVCAR-8 ovarian came out at 26.1 µM; in the assay on SF-539 CNS it was 34.3 µM; with CCRF-CEM leukemia, 16.2 µM; in the assay with SN12C renal, 49.5 µM; with MDA-MB-231 breast, 50.7 µM; with UACC-62 melanoma, 41.3 µM. In addition, the TGI is 54.2 µM in the assay with NCI-H23 lung, over 100 µM in the assay on NCI-H226 lung, 38.5 µM in the assay on SW-620 colon and 44.3 µM in the assay on IGROV1 ovarian.

`CC1(C)[C@@H](OC(N)=O)C=C[C@]2(C=O)[C@H]3CC[C@]4(C)[C@@H](c5ccc(=O)oc5)[C@@H](Cl)C[C@]4(O)C3=CC[C@@H]12`: the GI50 in the assay on OVCAR-8 ovarian is 0.00517 µM; in the assay with SF-539 CNS, 0.00442 µM; with CCRF-CEM leukemia, 0.00384 µM; in the assay with SN12C renal, 0.00293 µM; with MDA-MB-231 breast it was 0.00899 µM; with UACC-62 melanoma, 0.00491 µM. The GI50 was 0.00298 µM in the assay on NCI-H23 lung, 0.00433 µM with NCI-H226 lung, 0.00561 µM with SW-620 colon and 0.00761 µM in the assay with IGROV1 ovarian. In addition, the TGI in the assay with OVCAR-8 ovarian worked out at 0.0123 µM; with SF-539 CNS, 0.00848 µM; in the assay with CCRF-CEM leukemia, 0.0117 µM; in the assay on SN12C renal, 0.0136 µM; in the assay on MDA-MB-231 breast it was 0.0492 µM; in the assay on UACC-62 melanoma it was 0.0105 µM. Also, the TGI stood at 0.0102 µM with NCI-H23 lung, 0.00829 µM in the assay with NCI-H226 lung, 0.013 µM in the assay with SW-620 colon and 0.0244 µM in the assay with IGROV1 ovarian.

Consider `COc1ccc(-c2c(N)n[nH]c2-c2cc(OC)c(OC)c(OC)c2)cc1`, for which the GI50 with OVCAR-8 ovarian is 0.424 µM; with SF-539 CNS, 0.202 µM; in the assay on CCRF-CEM leukemia, 0.238 µM; in the assay with SN12C renal, 0.635 µM; with MDA-MB-231 breast, 0.56 µM; in the assay on UACC-62 melanoma, 0.14 µM. Besides, the GI50 is 0.25 µM with NCI-H23 lung, 0.644 µM in the assay on NCI-H226 lung, 0.0587 µM with SW-620 colon and 0.769 µM in the assay with IGROV1 ovarian. The TGI in the assay on OVCAR-8 ovarian was over 100 µM; with SF-539 CNS, 0.865 µM; in the assay on CCRF-CEM leukemia, over 100 µM; in the assay with SN12C renal it was over 100 µM; in the assay with MDA-MB-231 breast it was over 100 µM; in the assay on UACC-62 melanoma it was over 100 µM. Further, the TGI in the assay on NCI-H23 lung is 43.7 µM; with NCI-H226 lung it was over 100 µM; with SW-620 colon, over 100 µM; in the assay with IGROV1 ovarian, 60.5 µM.

For `O=C(O)C(=O)CBr`, the GI50 in the assay on OVCAR-8 ovarian is > 43.4 µM and 19.5 µM; with SF-539 CNS, > 41.1 µM and 16.8 µM; in the assay with CCRF-CEM leukemia it was 14.4 µM and 7.12 µM; in the assay on SN12C renal it was > 46.2 µM and 19.1 µM; with MDA-MB-231 breast, over 100 µM; in the assay with UACC-62 melanoma it was > 44.7 µM and 19 µM. For the same compound, the GI50 with NCI-H23 lung was > 48.4 µM and 19.9 µM; in the assay with NCI-H226 lung, over 100 µM; in the assay with SW-620 colon it was 6.8 µM; with IGROV1 ovarian, 33.5 µM and 62.1 µM. For the same compound, the TGI in the assay on OVCAR-8 ovarian is > 59.7 µM and 36.7 µM; in the assay with SF-539 CNS, > 56.3 µM and 31.5 µM; with CCRF-CEM leukemia it was > 52.2 µM and 38.6 µM; with SN12C renal, > 64 µM and 34.5 µM; in the assay on MDA-MB-231 breast, over 100 µM; with UACC-62 melanoma, > 62.5 µM and 35.3 µM. In addition, the TGI is > 74 µM and 39.5 µM in the assay with NCI-H23 lung; over 100 µM in the assay on NCI-H226 lung; > 35.3 µM and 21.6 µM with SW-620 colon; over 100 µM in the assay on IGROV1 ovarian.

`O=[As]c1ccc(C(=O)c2ccc(Oc3ccccc3)cc2)cc1` (stereo not given): the GI50 is 0.0389 µM in the assay with OVCAR-8 ovarian; 0.066 µM with SF-539 CNS; 0.0191 µM in the assay with CCRF-CEM leukemia; 0.0407 µM in the assay on SN12C renal; 0.0547 µM in the assay on MDA-MB-231 breast; 0.059 µM with UACC-62 melanoma. Also, the GI50 was 0.0751 µM in the assay on NCI-H23 lung, 0.106 µM in the assay with NCI-H226 lung, 0.0248 µM with SW-620 colon and 0.044 µM in the assay on IGROV1 ovarian. Besides, the TGI stood at 0.146 µM in the assay on OVCAR-8 ovarian; 0.218 µM with SF-539 CNS; 0.155 µM with CCRF-CEM leukemia; 0.148 µM in the assay on SN12C renal; 0.192 µM in the assay with MDA-MB-231 breast; 0.185 µM with UACC-62 melanoma. Besides, the TGI turned out to be 0.242 µM in the assay on NCI-H23 lung, 0.226 µM in the assay with NCI-H226 lung, 0.111 µM in the assay with SW-620 colon and 0.219 µM in the assay on IGROV1 ovarian.

For the compound `CCOC(=S)SCN1C(=O)c2ccccc2S1(=O)=O`, the GI50 in the assay on OVCAR-8 ovarian was 20.8 µM; in the assay with SF-539 CNS, 24.7 µM; in the assay on CCRF-CEM leukemia it was 16.3 µM; in the assay with SN12C renal it was 21 µM; with MDA-MB-231 breast, 19.3 µM; in the assay with UACC-62 melanoma it was 20 µM. For the same compound, the GI50 in the assay with NCI-H23 lung was 12.6 µM; in the assay with NCI-H226 lung, 29.2 µM; with SW-620 colon, 4.96 µM; in the assay on IGROV1 ovarian it was 18.5 µM. The TGI in the assay on OVCAR-8 ovarian is over 100 µM; with SF-539 CNS, 58.5 µM; with CCRF-CEM leukemia, 39.4 µM; in the assay with SN12C renal it was 46.6 µM; in the assay with MDA-MB-231 breast, 40.9 µM; in the assay with UACC-62 melanoma, 38 µM. Moreover, the TGI came to 27.8 µM in the assay on NCI-H23 lung, 80.9 µM with NCI-H226 lung, 19.7 µM with SW-620 colon and 52.4 µM in the assay with IGROV1 ovarian.

For the compound `O=C1c2ccccc2-c2c1c1ccccc1c(=O)n2-c1ccccc1`, the TGI is 27.4 µM in the assay on OVCAR-8 ovarian; 12.3 µM in the assay on SF-539 CNS; over 100 µM with CCRF-CEM leukemia; over 100 µM with SN12C renal; 32.4 µM with MDA-MB-231 breast; over 54.2 µM in the assay with UACC-62 melanoma. In addition, the TGI with NCI-H23 lung was 24 µM; with NCI-H226 lung, 41.4 µM; in the assay with SW-620 colon it was over 100 µM; in the assay with IGROV1 ovarian it was over 52.7 µM.

As to `Cc1cc(O)cc2c1c(=O)c1ccccc1n2C`, the TGI in the assay with OVCAR-8 ovarian, with SF-539 CNS, in the assay with CCRF-CEM leukemia, in the assay on SN12C renal, in the assay with MDA-MB-231 breast and in the assay with UACC-62 melanoma was over 100 µM each time. Further, the TGI with NCI-H23 lung, with NCI-H226 lung, in the assay with SW-620 colon and with IGROV1 ovarian was over 100 µM throughout.

`O=C(Nc1cc(-c2cccnc2)nc(NCCCN2CCOCC2)n1)c1cc(Br)cc(C(F)(F)F)c1`: the GI50 in the assay on OVCAR-8 ovarian is 2.98 µM; in the assay on SF-539 CNS it was 1.67 µM; with CCRF-CEM leukemia, 3.54 µM; with SN12C renal, 7.74 µM; with MDA-MB-231 breast it was 1.79 µM; in the assay on UACC-62 melanoma, 1.94 µM. In addition, the GI50 was 3.55 µM in the assay with NCI-H23 lung, 9.3 µM in the assay on NCI-H226 lung, 2.25 µM in the assay on SW-620 colon and 4.67 µM in the assay on IGROV1 ovarian. The TGI in the assay on OVCAR-8 ovarian came out at 8.59 µM; in the assay on SF-539 CNS, 3.47 µM; in the assay with CCRF-CEM leukemia, 12.9 µM; in the assay with SN12C renal, 21.8 µM; in the assay with MDA-MB-231 breast it was 3.93 µM; with UACC-62 melanoma, 4.38 µM. Further, the TGI came out at 15 µM in the assay on NCI-H23 lung, 22.7 µM with NCI-H226 lung, 5.48 µM with SW-620 colon and 19.5 µM in the assay on IGROV1 ovarian.

Consider `Nc1c(C(=O)Nc2cccc(Br)c2)sc2nc3c(cc12)C(O)CCC3` (stereo not given), for which the GI50 was 0.77 µM in the assay with OVCAR-8 ovarian; 0.337 µM in the assay on SF-539 CNS; 0.357 µM in the assay with CCRF-CEM leukemia; 0.636 µM in the assay with SN12C renal; 2.24 µM in the assay with MDA-MB-231 breast; 0.41 µM in the assay with UACC-62 melanoma. In addition, the GI50 in the assay on NCI-H23 lung was 0.761 µM; with NCI-H226 lung, 0.936 µM; in the assay on SW-620 colon, 0.4 µM; in the assay on IGROV1 ovarian, 0.833 µM. For the same compound, the TGI in the assay with OVCAR-8 ovarian was 37.6 µM; in the assay on SF-539 CNS it was 2.14 µM; with CCRF-CEM leukemia, over 74.9 µM; in the assay with SN12C renal it was over 100 µM; in the assay with MDA-MB-231 breast, over 85.7 µM; with UACC-62 melanoma, over 94.9 µM. Further, the TGI with NCI-H23 lung was over 100 µM; in the assay with NCI-H226 lung, 54.4 µM; in the assay on SW-620 colon, over 82 µM; with IGROV1 ovarian, over 70.3 µM.
